Values of other authors as cited in patent publication US6342501B1, “Pyrrolo[2,3-d] pyrimidines as antiviral agents” (The Regents of the University of Michigan, priority 1994, dated 2002).

How the values were obtained:
[1] = tested on: HSV-1; settings: prior studies; mechanism other than inhibition of DNA synthesis, early in replication cycle; cited from earlier work
[2] = tested on: HCMV; settings: prior studies; mechanism other than inhibition of DNA synthesis, early in replication cycle; cited from earlier work

COCCOCn1cc(C(N)=S)c2c(N)ncnc21 [compound 5b, 4-amino-7-[(2-methoxyethoxy)methyl]pyrrolo[2,3-d]pyrimidine-5-thiocarboxamide]
inhibition of HSV-1 viral replication (in words) [1]: inhibited | inhibition of HCMV viral replication (in words) [2]: inhibited
